Earlier results on one molecule are cited in patent US10266741B2, “Apparatus and method for addition of ADH enzyme inhibitors to existing engine cooling systems” (priority 2016, dated 2019).

In this series the test system is humans. The following applies: ingestion, Federal Register Vol. 63, No. 27, Feb. 10, 1998.

As for `OCCO` [EG, ethylene glycol], the “known toxin to humans at relatively low levels (reported as low as)” value is listed as 1,570 mg/kg.
